SMILES strings stand for the structures.

Melting point data for 90 compounds are collected here from a melting point compilation (Tetko et al.; mined from patent text by program, amines drawn as free bases though some values may be those of a salt).

As to `COc1ccc(CN2C(=O)CC[C@@]3(C)c4ccc(Cl)cc4CC[C@H]23)cc1` (relative stereo), the melting point was 55 to 60 °C.

The compound `Cc1ccc(Nc2nc(-c3c(-c4ccccc4)noc3C)cs2)nc1` showed a melting point of 267 to 269 °C. With `O=S(=O)(O)c1cccc(NCc2ccc(Cl)c(Cl)c2)c1` the figure was above 275 °C. For `CCCCCCCCCCCC(=O)N1c2ccccc2C(=O)N(C(C)C)S1(=O)=O`, the melting point is 57.5 to 58.5 °C.

For the compound `Cc1ccc(-c2nc(C(F)(F)F)nn2-c2ccc(S(C)(=O)=O)cc2)cc1`, the melting point lay within 176 to 178 °C. With `Cc1nccn1N=Cc1ccc(N(C)C)cc1`, the melting point lay within 166 to 167 °C. With `N#Cc1ccc(-c2nc3c(C(N)=O)cccc3[nH]2)cc1` the figure was above 310 °C; with `Cc1oncc1C(=O)c1ccc(S(C)=O)c(Cl)c1Cl` (stereo not given), 125 to 126 °C. As to `COc1cc(OC)c(C(=O)C=Cc2ccc(C)cc2)c(OP(=O)(O)O)c1`, the melting point is 81 to 83 °C. The value for `Brc1ccc2c(c1)COC(N[C@@H]1CCc3ccccc31)=N2` was 123 °C; that for `COCCCN1CC[C@@H](CNC(=O)c2cc(Cl)c(N)c3c2OC(C)(C)C3)[C@H](O)C1` (relative stereo) was 97 °C; that for `O=C(Nc1ccccc1)O[C@@H]1CN=C(c2cccc(Cl)c2)O[C@H]1c1ccccc1` (racemic) was 126 °C. The value for `CC1NC(=O)NN=C1c1ccc(N2CCCC2=O)cc1` (stereo not given) was 278 to 280 °C. The value for `CCOC(=O)Cc1nc(-c2ccccc2)c(-c2ccccc2)o1` was 71 to 72 °C.

With `COc1cc2c(cc1C)CCC=C2c1ncc[nH]1`, the melting point lay within 197 to 229 °C. The value for `COC(=O)c1cccc(-c2ncc(OCCN3CCOCC3)cn2)c1` was 89 to 91 °C; that for `CCOC(=O)c1c2ccc(CC(=O)NOCC(=O)N3CCOCC3)ccc-2c(C(=O)OCC)c1N` was 196 to 198 °C. With `CCOC(=O)c1nc(-c2ccsc2)n(-c2cccc(Cl)c2F)c1-c1ccc(F)c(Cl)c1` the figure was 207 to 209 °C. With `COC12CC(c3nnc(-c4cncc(Br)c4)[nH]3)CN(C)C1Cc1c[nH]c3cccc2c13` (stereo not given) the figure was 142 to 146 °C; with `O=[N+]([O-])c1cccc2nc3c(nc12)N1CCCCC1CO3` (stereo not given), 182 to 184 °C. `Cn1cc(C2=CCN(CCCN3c4cccc5cccc(c45)S3(=O)=O)CC2)c2ccccc21` registered a melting point of 161 °C. For `COc1ccc(-c2ccc(C(=O)Nc3ccc4cc(CN5CCCC5)cnc4c3C)cc2F)cc1`, the melting point was in the range of 174 to 176 °C. The value for `Cc1ccc(C)c(-c2ccc(C#N)c(C)c2)c1` was 96 to 97 °C; that for `COC(=O)n1nc(-c2cc(Cl)c(C)c(Cl)c2)ccc1=O` was 203 to 206 °C. With `c1ccc(-c2n[nH]cc2-c2ccnc(-c3ccc(OCCn4ccnc4)cc3)c2)nc1` the figure was 108 °C; with `CC(C)NC(=O)OCC(=O)c1ccc(C2CCCCC2)cc1`, 111 to 112 °C; with `COCc1ncc(OC)c(=O)[nH]1`, 61 °C.

Compound `NCC1Cc2cc(-c3ccccc3)cc(-c3ccccc3F)c2O1` (stereo not given) yielded a melting point above 250 °C. Turning to `Oc1cc(O)nc(C2CC2)n1`, the melting point is above 290 °C. Regarding `O=C(O)c1ccc(Sc2ccc(OCc3ccc4ccccc4n3)cc2)cc1`, the melting point fell in the range of 195 to 197 °C. With `N#Cc1ccc(NC(=O)c2ccc3ccccc3c2O)c(OC(F)(F)F)c1` the figure was 178 °C; with `O=C(O)CCCCCCCNS(=O)(=O)c1cccc(Cl)c1`, 85 to 86 °C; with `Cc1ccc(N2C(=O)C(O)=C(C(=O)c3ccc(C(C)C)cc3)C2c2ccc(Cn3ncnn3)cc2)nn1` (stereo not given), 271 °C.

Take `N#CCCCCCCCCCOc1cccc(C(N)=O)c1`: the melting point was 96 to 97 °C. `CCCCCCCCOC(=O)c1[nH]c2cccc3c2c1CCNC3=O` gave a melting point of 170 to 171 °C.

In turn, `CC(=O)NCC1CN(c2ccc(N3CCN(c4nccs4)CC3)c(F)c2)C(=O)O1` (stereo not given) registered a melting point of 205 to 206 °C. With `CCCCc1c(OC)cc(C(=O)O)nc1OC` the figure was 113 to 114 °C; with `COc1ccc([C@@H]2C[C@H]2NC(=O)N(C)O)cc1OC` (relative stereo), 142 to 144 °C. The value for `CC(O)C(NC(=O)OCc1ccccc1)C(=O)NN` (stereo not given) was 135 °C; that for `CCCCNC(=O)Oc1cccc(NC(=O)C=C(C)OC)c1` was 166 °C; that for `CC(NC(=O)C1=C(C(=O)Nc2cc(OC3CCCC3)c(Cl)cc2F)CCCC1)c1ccccc1` (stereo not given) was 173 to 175 °C. Take `c1ccc(-c2ccccc2OCCCCCCOc2ccccc2-c2ccccc2)cc1`: the melting point was 92 to 95 °C.

`Cc1ccc(C=CCC#N)cc1`: the melting point was in the range of 60 to 61 °C. Turning to `O=C(CCc1ccc(Cl)cc1)Cn1ccnc1`, the melting point was in the range of 172 to 174 °C. The value for `COc1ccc2c(Nc3cccc(CCO)c3)c3ccccc3nc2c1` was 186 to 188 °C; that for `CC(C)[C@H](NC(=O)Oc1ccccc1)C(=O)O` was 84.5 to 85.5 °C; that for `O=C(O)/C=C\C=C(c1ccccc1)c1ccccc1` was 175 to 176 °C.

Take `CCOC(=O)C(NC(=O)CO)C(=O)OCC`: the melting point was in the range of 74 to 74.5 °C. `N#Cc1cc(C(=O)NNC(=O)c2occc2-c2ccccc2-c2ccccc2)ccc1O` returned a melting point of 159 to 162 °C. Compound `CCCCCCCCCCCCOc1ccccc1O` gave a melting point of 46 °C. The value for `CCC(=O)C(C)Oc1cc(C(=O)OC)ccc1OC` (stereo not given) was 63 to 65 °C; that for `O=C(NCC(=O)N(O)CCCP(=O)(O)O)OCc1ccccc1` was 101 to 105 °C; that for `CC/C(=C\CCC(O)(CC)CC)c1cc(CCc2ccc(CO)c(CO)c2)cs1` was 85 to 86 °C. With `c1ccc(OCCNc2nc(Nc3cc(C4CC4)n[nH]3)c3ccccc3n2)cc1` the figure was 203 °C; with `COC(=O)COc1ccc2cc(-c3csc(-c4ccccc4)n3)ccc2c1Br`, 156 to 159 °C. `CCOC(=O)c1cn(NCC(=O)OC)c2cc3c(cc2c1=O)OCO3` displayed a melting point of 142 to 145 °C. With `C=CCNc1nc(NC(C)(C)C)c2scc(C)c2n1` the figure was 89 to 90 °C; with `CNC(=O)CNC(=O)c1cccc(-c2cccc3oc(Cc4cccc(C(F)(F)F)c4)cc23)c1`, 135 to 139 °C; with `C[C@@H]1CN(c2nccc(Oc3ccc(NC(=O)c4cc(F)cc(N5CCOCC5)c4)c4ccccc34)n2)C[C@H](C)O1`, 118 to 120 °C.

`COC(=O)C1CN(C(C)=O)c2ccccc2CN1S(=O)(=O)c1ccc(OC)cc1` (stereo not given) yielded a melting point of 150 to 155 °C. Compound `O=C1CC(CN2C(=O)c3ccccc3C2=O)=Nc2ccccc2N1` showed a melting point of 244 to 246 °C. With `CCCC(CCC)c1ccc(OCc2ccc(-c3csc(COc4cncc(C(=O)O)c4)c3)cc2)cc1` the figure was 157 to 159 °C; with `NS(=O)(=O)c1cccc(NC(=O)c2cnn3c(C(F)(F)F)cc(-c4ccc(C(F)(F)F)c(Cl)c4)nc23)c1`, 287 °C; with `CN1CCN(Nc2cc(Cl)ccc2[N+](=O)[O-])CC1`, 108 °C. The value for `CCOc1ccc(CC2SC(=N)NC2=O)cc1OCC` (stereo not given) was 171 to 172 °C; that for `CCOC(NC(=O)c1ccccc1)C(N)=O` (stereo not given) was 148 to 150 °C.

`CC1C(=O)Oc2cc(N3CCOCC3)ccc21` (stereo not given) showed a melting point of 118 to 121 °C.

The compound `Cc1oc(-c2ccccc2)nc1CCOc1ccc(C[C@H](NC(=O)C=Cc2ccc(F)cc2)C(=O)O)cc1` showed a melting point of 188 to 190 °C. Regarding `COCCOC(=O)C1Oc2ccccc2Cc2ccccc2O1`, the melting point lay within 74 to 76 °C.

On to `O=C1c2cc(Cl)c(Cl)cc2C(=O)N1CCN1CCC(c2noc3cc(F)ccc23)CC1`, for which the melting point fell in the range of 132 to 134 °C. The value for `O=C(CCCCCSc1ccc(Cl)cc1)NO` was 83 to 85 °C; that for `Cc1ccc(OC(F)C(F)(F)F)c([N+](=O)[O-])c1[N+](=O)[O-]` (stereo not given) was 35 °C. On to `CCOC(=O)c1cnc(-c2ccccc2OC(C)CC)[nH]c1=O` (stereo not given), for which the melting point lay in the range of 134 to 136 °C.

Consider `CC1=NNC(=O)N(N=Cc2cccnc2C)C1`, for which the melting point lay within 226 to 229 °C. With `CCOC(=O)N=C(NCCCc1c[nH]cn1)NCCC(c1ccccc1)c1ccccc1` the figure was 125 to 126 °C.

As to `C=CC1(O)CCC2(C)C(CCC3C2CCC2(C)C(OC)CCC32)C1` (stereo not given), the melting point is 104 to 111 °C. Regarding `CN1CCNC1=C(Br)[N+](=O)[O-]`, the melting point came out at 97 °C. The value for `CCC(O)(CC(=O)OC(C)(C)C)c1ccn(Cc2cc3cc(OCc4ccccc4)c(F)cc3nc2I)c(=O)c1` (stereo not given) was 174 °C. In turn, `COC(=O)C1=Cc2cc(-c3ccc(OCCOC(C)C)cc3)ccc2N(C=O)CC1` came in with a melting point of 107 to 108 °C. `COc1ccc(CN2CCCc3cc(O)c(OC)cc3C2)cc1` showed a melting point of 105 to 107 °C. The value for `CC(=O)N(c1ccc(O)cc1)N1CCOCC1` was 183 to 184 °C; that for `COCCc1nc2c(N)nc3ccccc3c2n1Cc1ccccc1` was 202 to 204 °C; that for `CCCCCCCCOc1c(Cl)c(Sc2ccccc2N)c(OCCCCCCCC)c2c1C(=N)NC2=N` was 97 to 99 °C. Compound `Cn1cc(C(O)(c2ccc3c(cnn3C(=O)NC3CC3)c2)C(F)(F)F)c2ccccc21` (stereo not given) returned a melting point of 116 to 118 °C. With `O=C(NC1CC1)c1cc(Nc2nc(Cl)nc3ccoc23)[nH]n1` the figure was 247 °C; with `CCCCCCCCCCN=C=O`, 110 to 112 °C; with `Cc1ccccc1Oc1cccc(NC(=O)c2ccn3c2CSC3c2cccnc2)c1` (stereo not given), 180 °C.

`NC(=O)N1CC(Oc2ccccc2)C1` came in with a melting point of 179 to 186 °C. In the case of `O=S(=O)(c1cccc2ccccc12)c1n[nH]c2ccc(OCC3CCCNC3)cc12` (stereo not given), the melting point was in the range of 168 to 170 °C. The value for `COc1ccc(N2N=C3c4cc(Cl)ccc4SCCC3CC2=O)cc1` (stereo not given) was 159 to 161 °C.

The melting point is the temperature of the solid-liquid transition.
